Values after ≈ are worked out from the molar mass of the structure shown.
What was measured:
Chikungunya virus [1] = test: Antiviral activity against CHIKV infected in hamster BHK-21 cells assessed as inhibition of viral replication at 20 uM measured after 48 hrs by renilla luciferase assay relative to control; assay type: functional; design: scale not given: the % may be the effect or the level left
Chikungunya virus [2] = test: Antiviral activity against CHIKV infected in human foreskin fibroblast cells; assay type: functional, organism-based
Chikungunya virus [3] = test: Antiviral activity against CHIKV-ZsGreen infected in African green monkey Vero incubated for 24 hrs by flow cytometry analysis; assay type: functional, organism-based
[4] = Selectivity index, ratio of CC50 for human Huh-7 cells to EC50 for Yellow fever virus 17D; assay type: toxicity; settings: read-out: Ratio CC50/EC50
[5] = Kinetic solubility of the compound in buffer at pH 7.4 by LCMS analysis; assay type: physicochemical; settings: read-out: Kinetic_solubility
Chikungunya virus [6] = test: Antiviral activity against CHIKV S27 infected in Vero 76 cells assessed as reduction in cytopathic effect by neutral red staining based analysis; assay type: functional, organism-based; settings: S27, Vero 76
[7] = Metabolic stability in human liver microsomes assessed as hepatic clearance preincubated for 5 mins followed by NADPH addition and measured after 20 mins by LCMS analysis; assay type: ADME, Microsome; settings: time 25 min
Huh-7 [8] = test: Cytotoxicity against human Huh-7 cells infected with yellow fever virus assessed as reduction in cell viability incubated for 48 hrs by MTT assay; assay type: functional
[9] = Selectivity index, ratio of CC50 for hamster BHK-21 cells to EC50 for CHIKV infected in hamster BHK-21 cells; assay type: toxicity, cell-based; settings: read-out: Ratio CC50/EC50
Huh-7 [10] = test: Cytotoxicity against human Huh-7 cells assessed as reduction in cell viability incubated for 48 hrs by MTT assay; assay type: functional
HepG2 = test: Cytotoxicity against human HepG2 cells assessed as reduction in cell viability measured after 48 hrs by MTT assay; assay type: functional
Chikungunya virus [11] = test: Antiviral activity against CHIKV S27 infected in Huh-7 cells assessed as reduction in cytopathic effect; assay type: functional, organism-based; settings: S27, Huh-7
[12] = Metabolic stability in mouse liver microsomes assessed as intrinsic clearance at 100 uM preincubated for 5 mins followed by NADPH addition and measured upto 60 mins by LCMS analysis; assay type: ADME, Microsome; settings: time < 65 min, read-out: CLH
Chikungunya virus [13] = test: Antiviral activity against CHIKV S27 infected in Vero 76 cells assessed as reduction in cytopathic effect; assay type: functional; settings: S27, Vero 76
BHK-21 = test: (§1) Cytotoxicity against hamster BHK-21 cells assessed as reduction in cell viability measured after 48 hrs by MTT assay; assay type: toxicity, cell-based, Mesocricetus auratus; settings: bhk-21, 48 h
Yellow fever virus [14] = test: Antiviral activity against Yellow fever virus 17D infected in Huh-7 cells assessed as reduction in cytopathic effect by neutral red staining based analysis; assay type: functional, organism-based
[15] = Inhibition of N-terminal His-tagged human PDI expressed in Escherichia coli BL21 (DE3) incubated for 1 hr
Chikungunya virus [16] = test: Antiviral activity against CHIKV S27 infected in Huh-7 cells assessed as reduction in cytopathic effect by neutral red staining based analysis; assay type: functional, organism-based; settings: S27, Huh-7
[17] = Apparent permeability of the compound across apical side to basolateral side in human Caco-2 cells assessed as drug recovery; assay type: ADME, cell-based
[18] = Kinetic solubility of the compound in FaSSIF at pH 6.8 by LCMS analysis; assay type: ADME; settings: read-out: Kinetic_solubility
[19] = Apparent permeability of the compound across apical side to basolateral side in human Caco-2 cells; assay type: ADME, cell-based
Yellow fever virus [20] = test: Antiviral activity against Yellow fever virus 17D infected in Huh-7 cells assessed as reduction in cytopathic effect; assay type: functional, organism-based
[21] = Selectivity index, ratio of CC50 for human Huh-7 cells to EC50 for Yellow fever virus 17D assessed as reduction in cytopathic effect by neutral red staining based analysis; assay type: toxicity; settings: read-out: Ratio CC50/EC50
[22] = Selectivity index, ratio of CC50 for human Huh-7 cells to EC50 for CHIKV S27 infected in Huh-7 cells assessed as reduction in cytopathic effect by neutral red staining based analysis; assay type: toxicity, cell-based; settings: read-out: Ratio CC50/EC50
[23] = Selectivity index, ratio of CC50 for human Huh-7 cells to EC50 for CHIKV S27 infected in Huh-7 cells; assay type: toxicity, cell-based; settings: read-out: Ratio CC50/EC50
Vero 76 = test: Cytotoxicity against African green monkey Vero 76 cells assessed as reduction in cell viability incubated for 48 hrs by MTT assay; assay type: toxicity, cell-based; settings: chlorocebus sabaeus, vero 76, 48 h
[24] = Kinetic solubility of the compound in FaSSGF at pH 1.2 by LCMS analysis; assay type: ADME; settings: read-out: Kinetic_solubility
[25] = Apparent permeability of the compound across basolateral side to apical side in human Caco-2 cells assessed as drug recovery; assay type: ADME, cell-based
Huh-7 [26] = test: Cytotoxicity against human Huh-7 cells assessed as reduction in cell viability measured after 48 hrs by MTT assay; assay type: functional
Chikungunya virus [27] = test: Antiviral activity against CHIKV infected in hamster BHK-21 cells assessed as inhibition of viral replication measured after 48 hrs by gaussia luciferase assay; assay type: functional, organism-based; settings: BHK-21, 48 h
Chikungunya virus [28] = test: Antiviral activity against CHIKV infected in hamster BHK-21 cells; assay type: functional, organism-based
Chikungunya virus [29] = test: Antiviral activity against CHIKV infected in […] Huh-7 cells; assay type: functional, organism-based
[30] = as §1; assay type: toxicity, cell-based, Mesocricetus auratus; settings: BHK-21 cells
Chikungunya virus [31] = test: Antiviral activity against CHIKV infected in African green monkey Vero cells; assay type: functional, organism-based

Cc1cc(C)nc(NS(=O)(=O)c2ccc(NC(=O)CN3C(=O)C4CC=CCC4C3=O)cc2)n1 (stereo not drawn)
Activity (Chikungunya virus [1]): 100%

COc1ccc(C(=O)/C=C/c2ccc(O)cc2)c(O)c1CC=C(C)C
Activity (Chikungunya virus [1]): 13.5%

O=C(C1CC1)N1CCN(Cn2sc3ccccc3c2=O)CC1
Activity (Chikungunya virus [1]): 14%

CC(C)n1ncc2c1N=C(O)CC2c1ccc(-c2ccc(C(=O)O)cc2)o1 (stereo not drawn)
Activity (Chikungunya virus [1]): 100%

O=C(O)c1ccc(S(=O)(=O)Nc2ccc(S(=O)(=O)Nc3ccccn3)cc2)cc1
Activity (Chikungunya virus [1]): 100%

O=C1CC(c2ccc(S(=O)(=O)Nc3ccccc3C(=O)Nc3ccc(F)cc3)cc2)CN1 (stereo not drawn)
Activity (Chikungunya virus [1]): 100%

O=C(O)c1nc(=O)[nH]c2ccccc12
IC50 (Chikungunya virus [2]): 23 µM

Cc1nc(C)c(CN2CCCC(C(=O)Nc3cccc(-n4cnnn4)c3)C2)nc1C (stereo not drawn)
Activity (Chikungunya virus [1]): 100%

NC(=O)C1CCN(c2nc3c(c(=O)[nH]2)C(C(=O)Nc2ccccc2Cl)CC(=O)N3)CC1 (stereo not drawn)
Activity (Chikungunya virus [1]): 140%

Cc1cc([N+](=O)[O-])ccc1-c1ccc(C2N=C(O)c3c(sc4c3CCN(C)C4)N2)o1 (stereo not drawn)
Activity (Chikungunya virus [1]): 100%

OC(CNC1CCN(Cc2ccccc2)CC1)COc1ccccc1 (stereo not drawn)
EC50 (Chikungunya virus [3]): 1.6 µM

Cn1c(=O)[nH]c2ccc(S(=O)(=O)NCCCOC34CC5CC(CC(C5)C3)C4)cc2c1=O
Activity (Chikungunya virus [1]): 100%

Cc1nc2c(=O)n(C)c(=O)nc-2n(C)n1
selectivity ratio [4]: 3.2 | solubility kinetic [5]: 400 µM (≈ 82.8 µg/mL) | EC50 (Chikungunya virus [6]): > 1.7 µM | CLhep predicted [7]: < 6.1 mL/min/kg | CC50 (Huh-7 [8]): 1.2 µM | selectivity ratio [9]: 30.8 | CC50 (Huh-7 [10]): 1.1 µM | CC50 (HepG2): 11 µM | EC50 (Chikungunya virus [11]): 0.19 µM | microsomal CLint at 100 µM [12]: 7.4 µL/min/mg | EC90 (Chikungunya virus [13]): > 1.7 µM | CC50 (BHK-21): 6.2 µM | EC50 (Yellow fever virus [14]): 0.42 µM | Activity (Chikungunya virus [1]): 2% | IC50 [15]: 0.17 µM | EC50 (Chikungunya virus [16]): < 0.1 µM | Drug recovery [17]: 103% | solubility kinetic [18]: 228 µM (≈ 47.1 µg/mL) | Papp [19]: 17.8 10^-6 cm/s | EC50 (Yellow fever virus [20]): 0.37 µM | selectivity ratio [21]: 2.9 | selectivity ratio [22]: > 11 | selectivity ratio [23]: 17 | CC50 (Vero 76): 1.7 µM | solubility kinetic [24]: 424 µM (≈ 87.7 µg/mL) | Drug recovery [25]: 93.5% | CC50 (Huh-7 [26]): 3.2 µM | EC50 (Chikungunya virus [27]): 0.2 µM

CC(=O)c1ccc(S(=O)(=O)NC(=O)NC2CCCCC2)cc1 [ACETOHEXAMIDE]
Activity (Chikungunya virus [1]): 100%

CCN(CC)Cc1cc(Nc2ccnc3cc(Cl)ccc23)ccc1O [AMODIAQUINE]
Activity (Chikungunya virus [1]): 19%

CN1[C@@H]2CC[C@H]1C[C@@H](OC(=O)C(CO)c1ccccc1)C2 (stereo partly drawn) [ATROPINE]
Activity (Chikungunya virus [1]): 149.2%

COc1c(O)cc2c(c1O)[C@@H]1O[C@H](CO)[C@@H](O)[C@H](O)[C@H]1OC2=O [BERGENIN]
Activity (Chikungunya virus [1]): 100%

C[C@@H]1C[C@H]2[C@@H]3CCC4=CC(=O)C=C[C@]4(C)[C@@]3(F)[C@@H](O)C[C@]2(C)[C@@]1(O)C(=O)CO [DEXAMETHASONE]
Activity (Chikungunya virus [1]): 70.9%

C=CCc1ccc(OC)cc1 [ESTRAGOLE]
Activity (Chikungunya virus [1]): 100%

C=CCc1ccc(O)c(OC)c1 [EUGENOL]
Activity (Chikungunya virus [1]): 100%

OCCN1CCN(CCCN2c3ccccc3Sc3ccc(C(F)(F)F)cc32)CC1 [FLUPHENAZINE]
Activity (Chikungunya virus [1]): 11.6%

O=C1OC(CN2CCOCC2)CN1/N=C/c1ccc([N+](=O)[O-])o1 (stereo not drawn) [FURALTADONE]
Activity (Chikungunya virus [1]): 20.4%

O=C(CCCN1CCC(O)(c2ccc(Cl)cc2)CC1)c1ccc(F)cc1 [HALOPERIDOL]
Activity (Chikungunya virus [1]): 40.5%

CCC(C)n1ncn(-c2ccc(N3CCN(c4ccc(OCC5COC(Cn6cncn6)(c6ccc(Cl)cc6Cl)O5)cc4)CC3)cc2)c1=O (stereo not drawn) [ITRACONAZOLE]
EC50 (Chikungunya virus [28]): 0.32 µM

CCCCCc1c2c(cc(O)c1C(=O)O)OC(=O)c1c(cc(OC)cc1C(=O)CCCC)O2 [LOBARIC ACID]
EC50 (Chikungunya virus [29]): 5.3 µM

CCCCN(CCCC)CC(O)c1cc(Cl)cc2c1-c1ccc(Cl)cc1/C2=C/c1ccc(Cl)cc1 (stereo not drawn) [LUMEFANTRINE]
Activity (Chikungunya virus [1]): 100%

C=CCN1CC[C@]23c4c5ccc(O)c4O[C@H]2C(=O)CC[C@@]3(O)[C@H]1C5 [NALOXONE]
Activity (Chikungunya virus [1]): 121.5%

CCCCCCCCCCC[C@@H](C[C@@H]1OC(=O)[C@H]1CCCCCC)OC(=O)[C@H](CC(C)C)NC=O [ORLISTAT]
Activity (Chikungunya virus [1]): 48.7%

c1ccc2c(c1)Nc1ccccc1S2 [PHENOTHIAZINE]
Activity (Chikungunya virus [1]): 73.7%

NC(=O)C1(N2CCCCC2)CCN(CCCC(=O)c2ccc(F)cc2)CC1 [PIPAMPERONE]
Activity (Chikungunya virus [1]): 102.9%

Clc1ccc2c(N3CCN(CCCN4CCN(c5ccnc6cc(Cl)ccc56)CC4)CC3)ccnc2c1 [PIPERAQUINE]
Activity (Chikungunya virus [1]): 138.1%

CN(C)CCCN1c2ccccc2Sc2ccccc21 [PROMAZINE]
Activity (Chikungunya virus [1]): 18%

CCN(CC)CCCC(C)Nc1c2ccc(Cl)cc2nc2ccc(OC)cc12 (stereo not drawn) [QUINACRINE]
selectivity ratio [9]: 1.6 | CC50 at 48 h [30]: 19.8 µM | Activity (Chikungunya virus [1]): 12.5% | EC50 (Chikungunya virus [27]): 12 µM

Cc1nnc(C(=O)NC(C)(C)c2nc(C(=O)NCc3ccc(F)cc3)c(O)c(=O)n2C)o1 [RALTEGRAVIR]
Activity (Chikungunya virus [1]): 58.9%

O=P(O)(O)C(O)(Cc1cccnc1)P(=O)(O)O [RISEDRONIC ACID]
Activity (Chikungunya virus [1]): 86.7%

OCc1ccccc1O[C@@H]1O[C@H](CO)[C@@H](O)[C@H](O)[C@H]1O [SALICIN]
Activity (Chikungunya virus [1]): 100%

CCN(CC)CCOc1ccc2c(c1)C(=O)c1cc(OCCN(CC)CC)ccc1-2 [TILORONE]
EC50 (Chikungunya virus [31]): 4.2 µM | Activity (Chikungunya virus [1]): 100%

CC(C)=CCC/C(C)=C/Cc1c(O)ccc(C(=O)/C=C/c2ccc(O)cc2)c1O [XANTHOANGELOL]
selectivity ratio [9]: 1.7 | CC50 at 48 h [30]: 11.8 µM | Activity (Chikungunya virus [1]): 8.4% | EC50 (Chikungunya virus [27]): 7.1 µM

O=C1Cc2cc(CCN3CCN(c4nsc5ccccc45)CC3)c(Cl)cc2N1 [ZIPRASIDONE]
Activity (Chikungunya virus [1]): 101%

Source: ChEMBL document CHEMBL5252629, “The protein disulfide isomerase inhibitor 3-methyltoxoflavin inhibits Chikungunya virus” (Bioorg Med Chem, 2023)
